What was measured:
[1] = target: T1, Xanthine dehydrogenase/oxidase (Homo sapiens, UniProt P47989); assay: Inhibition of xanthine oxidase (unknown origin) using xanthine as substrate after 10 mins by HPLC method
[2] = target: T1, Xanthine dehydrogenase/oxidase; assay: Inhibition of xanthine oxidase (unknown origin) using xanthine as substrate at 33 to 100 umol/L after 10 mins by HPLC method relative to control

T1 sequence (P47989 whole entry): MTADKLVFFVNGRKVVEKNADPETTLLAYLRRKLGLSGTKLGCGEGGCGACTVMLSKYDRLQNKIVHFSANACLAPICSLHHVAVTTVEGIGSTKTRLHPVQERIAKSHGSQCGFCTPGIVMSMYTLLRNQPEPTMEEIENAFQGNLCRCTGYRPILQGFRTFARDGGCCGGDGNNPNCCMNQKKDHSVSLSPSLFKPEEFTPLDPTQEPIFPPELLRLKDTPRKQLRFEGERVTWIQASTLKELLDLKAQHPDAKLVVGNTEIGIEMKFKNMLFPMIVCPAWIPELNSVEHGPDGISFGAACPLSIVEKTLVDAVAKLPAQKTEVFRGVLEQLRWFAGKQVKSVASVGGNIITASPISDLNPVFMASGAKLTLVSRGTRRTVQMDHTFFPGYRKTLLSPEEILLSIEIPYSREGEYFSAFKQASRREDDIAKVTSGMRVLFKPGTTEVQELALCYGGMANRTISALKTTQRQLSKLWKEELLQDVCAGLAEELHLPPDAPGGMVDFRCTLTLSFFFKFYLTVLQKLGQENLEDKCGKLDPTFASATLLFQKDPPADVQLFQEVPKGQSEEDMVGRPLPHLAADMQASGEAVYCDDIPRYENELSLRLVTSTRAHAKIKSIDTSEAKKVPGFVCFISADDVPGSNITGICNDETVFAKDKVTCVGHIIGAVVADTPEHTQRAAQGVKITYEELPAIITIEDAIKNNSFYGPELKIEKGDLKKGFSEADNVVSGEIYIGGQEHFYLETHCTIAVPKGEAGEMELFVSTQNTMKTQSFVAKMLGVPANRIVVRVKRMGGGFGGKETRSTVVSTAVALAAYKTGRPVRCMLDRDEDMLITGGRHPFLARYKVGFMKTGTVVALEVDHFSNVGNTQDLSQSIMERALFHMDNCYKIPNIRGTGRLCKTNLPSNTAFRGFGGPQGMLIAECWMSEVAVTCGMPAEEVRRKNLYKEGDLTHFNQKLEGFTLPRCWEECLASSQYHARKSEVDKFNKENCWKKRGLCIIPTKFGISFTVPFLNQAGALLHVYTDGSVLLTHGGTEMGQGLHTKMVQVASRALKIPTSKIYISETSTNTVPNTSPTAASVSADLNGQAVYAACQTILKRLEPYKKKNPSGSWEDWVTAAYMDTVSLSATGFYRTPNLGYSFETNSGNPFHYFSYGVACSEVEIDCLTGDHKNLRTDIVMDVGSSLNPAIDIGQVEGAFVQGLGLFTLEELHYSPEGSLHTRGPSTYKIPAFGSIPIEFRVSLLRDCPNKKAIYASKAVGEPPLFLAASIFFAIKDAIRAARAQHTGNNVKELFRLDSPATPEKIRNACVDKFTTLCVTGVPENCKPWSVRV

| inhibition (INH) ([1]; human, 10 min) | SMILES | IC50 [1] [µM] | inhibition (INH) [2] [%] |
| --- | --- | --- | --- |
| Dose-dependent effect | CCOC(=O)C1=Nc2c(O)ccc(-c3cc(=O)c4c(O)cc(O)cc4o3)c2SC1 | 1.7 |  |
|  | O=c1c(O)c(-c2ccc(O)cc2)oc2cc(O)cc(O)c12 [KAEMPFEROL] |  | > 50 |
|  | O=c1cc(-c2ccc(O)c(O)c2)oc2cc(O)cc(O)c12 [LUTEOLIN] | 7.8 | > 50 |
|  | O=c1c(O)c(-c2cc(O)c(O)c(O)c2)oc2cc(O)cc(O)c12 [MYRICETIN] |  | > 50 |
|  | O=c1c(O)c(-c2ccc(O)c(O)c2)oc2cc(O)cc(O)c12 [QUERCETIN] |  | > 50 |

From ChEMBL document CHEMBL3600320, “An oxidative coupling product of luteolin with cysteine ester and its enhanced inhibitory activity for xanthine oxidase” (Bioorg Med Chem Lett, 2015)
